Calls of active or inactive are those of the source. No cut-off for these calls is given here.
Experiments:
[1] = molecular target: Neuronal acetylcholine receptor; experiment: Binding affinity to nAChR in rat brain membranes; assay type: cell membranes, Membrane
[2] = molecular target: T1, Neuronal acetylcholine receptor; alpha3/beta4 (Homo sapiens, UniProt P30926+P32297); experiment: Agonist activity at human alpha3beta4 nAChR expressed in Xenopus laevis oocytes assessed as increase in peak current at 100 uM at -60 mV holding potential by electrophysiology method; assay type: cell-based
T1 sequence (P30926 whole entry): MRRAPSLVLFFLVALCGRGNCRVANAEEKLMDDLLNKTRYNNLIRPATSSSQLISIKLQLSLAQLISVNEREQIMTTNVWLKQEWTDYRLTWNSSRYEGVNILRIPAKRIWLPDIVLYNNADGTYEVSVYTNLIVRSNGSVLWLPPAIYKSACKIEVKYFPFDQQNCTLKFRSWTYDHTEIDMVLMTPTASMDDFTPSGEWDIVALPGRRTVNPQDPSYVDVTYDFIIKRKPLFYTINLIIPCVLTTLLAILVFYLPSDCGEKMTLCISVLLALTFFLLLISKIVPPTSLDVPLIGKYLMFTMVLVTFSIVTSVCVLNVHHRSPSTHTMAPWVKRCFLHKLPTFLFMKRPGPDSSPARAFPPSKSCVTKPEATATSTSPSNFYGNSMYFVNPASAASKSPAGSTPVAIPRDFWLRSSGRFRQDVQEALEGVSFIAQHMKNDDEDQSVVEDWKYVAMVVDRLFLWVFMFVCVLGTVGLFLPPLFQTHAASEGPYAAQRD
T1 sequence (P32297 whole entry): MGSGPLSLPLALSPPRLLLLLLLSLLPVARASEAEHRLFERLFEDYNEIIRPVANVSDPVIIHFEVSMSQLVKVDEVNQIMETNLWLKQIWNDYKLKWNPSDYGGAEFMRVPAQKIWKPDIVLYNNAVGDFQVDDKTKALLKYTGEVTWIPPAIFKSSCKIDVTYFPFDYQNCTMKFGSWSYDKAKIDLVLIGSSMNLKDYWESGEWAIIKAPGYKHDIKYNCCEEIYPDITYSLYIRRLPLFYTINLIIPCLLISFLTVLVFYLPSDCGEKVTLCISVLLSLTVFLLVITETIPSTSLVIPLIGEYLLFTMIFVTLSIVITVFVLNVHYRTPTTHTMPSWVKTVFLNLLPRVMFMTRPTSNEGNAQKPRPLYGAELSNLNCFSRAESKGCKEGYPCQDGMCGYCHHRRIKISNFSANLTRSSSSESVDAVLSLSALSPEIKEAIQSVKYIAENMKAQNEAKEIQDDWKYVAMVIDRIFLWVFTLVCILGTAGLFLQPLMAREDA

[3] = molecular target: T2, Neuronal acetylcholine receptor; alpha4/beta2 (Homo sapiens) (UniProt P17787+P43681); experiment: Agonist activity at alpha4beta2 nAChR (unknown origin) expressed in Xenopus laevis oocytes assessed as increase in peak current at 30 uM at -60 mV holding potential by electrophysiology method; assay type: cell-based
[4] = molecular target: Neuronal acetylcholine receptor subunit alpha-7 (Homo sapiens) (UniProt P36544); experiment: Agonist activity at alpha7 nAChR (unknown origin) expressed in Xenopus laevis oocytes assessed as increase in peak current at 60 uM at -60 mV holding potential by electrophysiology method; assay type: cell-based
Neuronal acetylcholine receptor subunit alpha-7 (Homo sapiens), sequence (P36544 whole entry): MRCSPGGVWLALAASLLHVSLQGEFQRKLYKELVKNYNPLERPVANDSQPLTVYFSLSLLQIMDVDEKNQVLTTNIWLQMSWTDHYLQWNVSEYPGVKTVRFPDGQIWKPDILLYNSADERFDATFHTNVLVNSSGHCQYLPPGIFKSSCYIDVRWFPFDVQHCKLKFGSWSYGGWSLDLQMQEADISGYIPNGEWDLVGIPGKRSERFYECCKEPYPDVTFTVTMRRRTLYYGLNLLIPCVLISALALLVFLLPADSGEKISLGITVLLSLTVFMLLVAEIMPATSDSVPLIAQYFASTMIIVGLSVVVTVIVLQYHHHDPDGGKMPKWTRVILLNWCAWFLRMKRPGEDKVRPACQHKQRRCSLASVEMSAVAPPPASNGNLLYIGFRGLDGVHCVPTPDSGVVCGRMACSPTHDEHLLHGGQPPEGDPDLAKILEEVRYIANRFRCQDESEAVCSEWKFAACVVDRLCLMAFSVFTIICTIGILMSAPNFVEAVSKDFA

[5] = molecular target: T1, Neuronal acetylcholine receptor; alpha3/beta4; experiment: Antagonist activity at human alpha3beta4 nAChR expressed in Xenopus laevis oocytes assessed as reduction in acetylcholine-induced peak current at 100 uM at -60 mV holding potential by electrophysiology method; assay type: cell-based
[6] = molecular target: T2, Neuronal acetylcholine receptor; alpha4/beta2 (Homo sapiens); experiment: Antagonist activity at alpha4beta2 nAChR (unknown origin) expressed in Xenopus laevis oocytes assessed as reduction in acetylcholine-induced peak current at 30 uM at -60 mV holding potential by electrophysiology method; assay type: cell-based
[7] = molecular target: Neuronal acetylcholine receptor subunit alpha-7 (Homo sapiens) (UniProt P36544); experiment: Antagonist activity at alpha7 nAChR (unknown origin) expressed in Xenopus laevis oocytes assessed as reduction in acetylcholine-induced peak current at 60 uM at -60 mV holding potential by electrophysiology method; assay type: cell-based
[8] = molecular target: T1, Neuronal acetylcholine receptor; alpha3/beta4; experiment: Antagonist activity at human alpha3beta4 nAChR expressed in Xenopus laevis oocytes assessed as reduction in acetylcholine-induced peak current at -60 mV holding potential by electrophysiology method; assay type: cell-based

Activity [2]	Activity [3]	Activity [4]	inhibition [5]	inhibition [6]	inhibition [7]	IC50 [8]	Ki [8]	SMILES	Kd [1]
								CN1CCC=C(c2ccc(Cl)nc2)C1	2.2 nM
inactive	inactive	inactive	Active	inactive	inactive	20000 nM	123 nM	CN1CCC=C(c2cnc(F)c(-c3ccccc3)c2)C1	
